Data on three compounds can be found in patent US12343331B2, “Methods and agents that stimulate mitochondrial turnover for treating disease” (Capacity Bio, Inc., priority 2021, dated 2025).

This experiment deals with INS1 cells. Kind of experiment: Mitochondrial content / cellular mitochondrial mass by imaging. Type of experiment: cell-based. Conditions: INS1 cell line; 8 hours, 24 hours, and 72 hours; three concentrations; FIG. 9; normalized to DMSO. Here is the method: Cells were cultured on coverslips inside a Petri dish filled with the appropriate culture medium or grown directly into a four-chamber glass bottom dish and cells were subsequently imaged on the LSM880. At least 30 cells per condition per experiment were collected, at least three separate experiments were performed for imaging clonal cells. Image analysis was performed in the CellProfiler™ software (cellprofiler.org) to measure mitophagic events. Individual mitochondrial fluorescence intensity and area were measured in CellProfiler™ and imported into Microsoft Excel®. Mitochondria smaller than 2 pixels in area were not included in final analyses. Images were subjected to top hat filtering followed by global threshold Otsu method to segment mitochondria. To assess amount of mitochondrial content, green fluorescence intensity of objects identified as mitochondrial structures were quantitated. Data has been normalized to the control treatment, dimethyl sulfoxide (DMSO).

The structures appear in SMILES notation. Non-standard residues stand in square brackets, D forms with d. Residues, ends and D or L forms follow the SMILES beside them. Nle = CCCC[C@H](N)C(=O)O

Consider `CCCCOC(=O)NS(=O)(=O)c1ccc(OC(F)(F)F)cc1-c1ccc(Cn2ccnc2)cn1` [Compound 7], for which the “cellular mitochondrial mass (mitochondrial content)” value (“cellular mitochondrial mass” for short) is listed as “stable”. As to `CCCC[C@H](NC(=O)[C@H](CCCNC(=N)N)NC(=O)[C@@H](N)CC(=O)O)C(=O)N[C@@H](Cc1ccc(O)cc1)C(=O)N[C@H](C(=O)N[C@@H](Cc1c[nH]cn1)C(=O)N1CCC[C@H]1C(=O)O)[C@@H](C)CC` [Nle^3-A(1-7), Asp-Arg-Nle-Tyr-Ile-His-Pro] (H-DR[Nle]YIHP-OH), the “cellular mitochondrial mass” value is listed as “stable”. As for `CC[C@H](C)[C@H](NC(=O)[C@H](Cc1ccc(O)cc1)NC(=O)[C@@H](NC(=O)[C@H](CCCNC(=N)N)NC(=O)[C@@H](N)CC(=O)O)C(C)C)C(=O)N[C@@H](Cc1c[nH]cn1)C(=O)N1CCC[C@H]1C(=O)O` [angiotensin(1-7), H-Asp-Arg-Val-Tyr-Ile-His-Pro-OH], the “cellular mitochondrial mass” value is “stable”.
